In patent US11993599B2, “Therapeutic compounds” (Genentech, Inc., priority 2021, dated 2024):

Tests used:
BRM = BRM (Homo sapiens, UniProt P51531); test: Immunofluorescence assay for BRM degradation in SW1573 cells; format: cell-based; set-up: treated overnight at 4° C. with either BRM primary antibody (Cell signaling Cat #11966) or BRG primary antibody; endogenous in cells; host or cells: SW1573; conditions: 20 hours incubation; for DC50: immunofluorescence mean nuclear signal, read-out: BRM IF Degradation IC50; for BRM IF Degradation Sinf (%): normalized to a known degrader control
Procedure: (§1) Example B-2: Immunofluorescence Assay for BRM and BRG1 Degraders
(§2) SW1573 cells were seeded at 3000 cells/well in 384 well plates. The next day, compounds were added using an Echo dispenser. After 20 hours of incubation with compound, cells were fixed with 4% formaldehyde then permeabilized with 0.2% Triton X-100 and blocked with 10% FCS. Fixed and permeabilized cells were treated overnight at 4° C. with either BRM primary antibody (Cell signaling Cat #11966) or BRG primary antibody (Abcam, ab 110641). Finally, cells were treated with fluorescently labeled secondary antibodies for 1 hr (Donkey anti-Rabbit IgG AF488, Life Technologies, A21206) and Hoechst nuclear stain (#H3569) was added for 30 minutes. Cells were washed with PBS in between each step and before imaging on an Opera Phenix microscope (Perkin Elmer). Harmony software (Perking Elmer) was used to quantify the mean nuclear signaling intensity of BRM or BRG signaling per cell in each well. Dose responses were determined from the concentration dependent response of mean nuclear signal intensity with data normalized to a known degrader control. Dose response curves were fit to a floating maximum to allow for calculation of the Dmax.
(§3) Note that, in Table 5, the “Compound Number” corresponds to that used in Table 1. In Table 5, for BRM and BRG1 IF degradation IC50 (μM): A indicates <0.010 μM, B indicates 0.010-0.10 μM, and C indicates >0.10 μM; and for BRM and BRG1 IF degradation Sinf % D indicates 0-−30%, E indicates −30%-−70%, F indicates −71%-−120% and ND indicates the value was not determined.

BRG1 = target: T1, BRG1 (Homo sapiens, UniProt P51532); test: Immunofluorescence assay for BRG1 degradation in SW1573 cells; format: cell-based; conditions: 20 hours incubation; for DC50: immunofluorescence mean nuclear signal, read-out: BRG1 IF Degradation IC50; for Dmax: SW1573, 20 h, normalized to a known degrader control, read-out: BRG1 IF Degradation Sinf (%)
T1 construct: either BRM primary antibody (Cell signaling Cat #11966) or BRG primary antibody (Abcam, ab 110641); endogenous in cells; host or cells: SW1573
Procedure: as §1, §2, §3

Sequence of BRM (P51531 whole entry): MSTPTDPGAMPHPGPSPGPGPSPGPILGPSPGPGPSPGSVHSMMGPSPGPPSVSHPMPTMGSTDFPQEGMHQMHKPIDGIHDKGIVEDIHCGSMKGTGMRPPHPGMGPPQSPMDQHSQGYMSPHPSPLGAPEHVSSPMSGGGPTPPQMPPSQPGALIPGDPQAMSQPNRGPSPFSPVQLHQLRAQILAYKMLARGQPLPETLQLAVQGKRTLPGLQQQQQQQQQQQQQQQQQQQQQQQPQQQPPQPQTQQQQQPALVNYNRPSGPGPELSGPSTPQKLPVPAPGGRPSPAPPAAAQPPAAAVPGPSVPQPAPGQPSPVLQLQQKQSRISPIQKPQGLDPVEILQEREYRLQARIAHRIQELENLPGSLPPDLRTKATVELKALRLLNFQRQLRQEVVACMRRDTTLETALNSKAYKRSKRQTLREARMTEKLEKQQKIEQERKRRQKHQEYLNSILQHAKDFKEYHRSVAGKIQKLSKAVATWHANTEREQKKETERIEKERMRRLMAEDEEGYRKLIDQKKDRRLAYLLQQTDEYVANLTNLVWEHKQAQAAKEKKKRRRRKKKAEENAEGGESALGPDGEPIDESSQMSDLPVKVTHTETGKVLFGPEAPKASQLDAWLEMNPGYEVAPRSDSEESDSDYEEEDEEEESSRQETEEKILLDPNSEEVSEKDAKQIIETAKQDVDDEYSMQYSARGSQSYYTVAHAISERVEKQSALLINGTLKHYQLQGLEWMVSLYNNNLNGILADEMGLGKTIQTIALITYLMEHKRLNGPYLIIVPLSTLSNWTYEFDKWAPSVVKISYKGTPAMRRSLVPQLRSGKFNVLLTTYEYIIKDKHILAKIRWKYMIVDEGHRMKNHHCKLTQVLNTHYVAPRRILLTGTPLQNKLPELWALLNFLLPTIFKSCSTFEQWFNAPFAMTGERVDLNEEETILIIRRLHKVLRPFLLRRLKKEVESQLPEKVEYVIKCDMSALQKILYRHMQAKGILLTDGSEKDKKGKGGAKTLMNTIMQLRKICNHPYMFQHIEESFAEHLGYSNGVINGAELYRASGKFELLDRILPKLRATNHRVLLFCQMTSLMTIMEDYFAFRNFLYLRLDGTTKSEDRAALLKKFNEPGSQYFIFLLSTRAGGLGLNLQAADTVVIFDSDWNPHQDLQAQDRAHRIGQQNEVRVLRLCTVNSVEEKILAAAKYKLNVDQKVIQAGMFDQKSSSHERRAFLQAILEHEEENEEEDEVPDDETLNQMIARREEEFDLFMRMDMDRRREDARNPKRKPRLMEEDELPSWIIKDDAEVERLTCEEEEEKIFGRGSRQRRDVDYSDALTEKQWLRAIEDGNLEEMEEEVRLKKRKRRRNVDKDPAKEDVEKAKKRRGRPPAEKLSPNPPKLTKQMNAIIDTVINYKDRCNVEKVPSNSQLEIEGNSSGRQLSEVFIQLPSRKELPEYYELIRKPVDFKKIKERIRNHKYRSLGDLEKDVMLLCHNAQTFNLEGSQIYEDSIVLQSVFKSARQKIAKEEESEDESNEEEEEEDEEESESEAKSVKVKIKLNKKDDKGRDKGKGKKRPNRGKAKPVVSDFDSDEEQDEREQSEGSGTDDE
T1 sequence (P51532 whole entry): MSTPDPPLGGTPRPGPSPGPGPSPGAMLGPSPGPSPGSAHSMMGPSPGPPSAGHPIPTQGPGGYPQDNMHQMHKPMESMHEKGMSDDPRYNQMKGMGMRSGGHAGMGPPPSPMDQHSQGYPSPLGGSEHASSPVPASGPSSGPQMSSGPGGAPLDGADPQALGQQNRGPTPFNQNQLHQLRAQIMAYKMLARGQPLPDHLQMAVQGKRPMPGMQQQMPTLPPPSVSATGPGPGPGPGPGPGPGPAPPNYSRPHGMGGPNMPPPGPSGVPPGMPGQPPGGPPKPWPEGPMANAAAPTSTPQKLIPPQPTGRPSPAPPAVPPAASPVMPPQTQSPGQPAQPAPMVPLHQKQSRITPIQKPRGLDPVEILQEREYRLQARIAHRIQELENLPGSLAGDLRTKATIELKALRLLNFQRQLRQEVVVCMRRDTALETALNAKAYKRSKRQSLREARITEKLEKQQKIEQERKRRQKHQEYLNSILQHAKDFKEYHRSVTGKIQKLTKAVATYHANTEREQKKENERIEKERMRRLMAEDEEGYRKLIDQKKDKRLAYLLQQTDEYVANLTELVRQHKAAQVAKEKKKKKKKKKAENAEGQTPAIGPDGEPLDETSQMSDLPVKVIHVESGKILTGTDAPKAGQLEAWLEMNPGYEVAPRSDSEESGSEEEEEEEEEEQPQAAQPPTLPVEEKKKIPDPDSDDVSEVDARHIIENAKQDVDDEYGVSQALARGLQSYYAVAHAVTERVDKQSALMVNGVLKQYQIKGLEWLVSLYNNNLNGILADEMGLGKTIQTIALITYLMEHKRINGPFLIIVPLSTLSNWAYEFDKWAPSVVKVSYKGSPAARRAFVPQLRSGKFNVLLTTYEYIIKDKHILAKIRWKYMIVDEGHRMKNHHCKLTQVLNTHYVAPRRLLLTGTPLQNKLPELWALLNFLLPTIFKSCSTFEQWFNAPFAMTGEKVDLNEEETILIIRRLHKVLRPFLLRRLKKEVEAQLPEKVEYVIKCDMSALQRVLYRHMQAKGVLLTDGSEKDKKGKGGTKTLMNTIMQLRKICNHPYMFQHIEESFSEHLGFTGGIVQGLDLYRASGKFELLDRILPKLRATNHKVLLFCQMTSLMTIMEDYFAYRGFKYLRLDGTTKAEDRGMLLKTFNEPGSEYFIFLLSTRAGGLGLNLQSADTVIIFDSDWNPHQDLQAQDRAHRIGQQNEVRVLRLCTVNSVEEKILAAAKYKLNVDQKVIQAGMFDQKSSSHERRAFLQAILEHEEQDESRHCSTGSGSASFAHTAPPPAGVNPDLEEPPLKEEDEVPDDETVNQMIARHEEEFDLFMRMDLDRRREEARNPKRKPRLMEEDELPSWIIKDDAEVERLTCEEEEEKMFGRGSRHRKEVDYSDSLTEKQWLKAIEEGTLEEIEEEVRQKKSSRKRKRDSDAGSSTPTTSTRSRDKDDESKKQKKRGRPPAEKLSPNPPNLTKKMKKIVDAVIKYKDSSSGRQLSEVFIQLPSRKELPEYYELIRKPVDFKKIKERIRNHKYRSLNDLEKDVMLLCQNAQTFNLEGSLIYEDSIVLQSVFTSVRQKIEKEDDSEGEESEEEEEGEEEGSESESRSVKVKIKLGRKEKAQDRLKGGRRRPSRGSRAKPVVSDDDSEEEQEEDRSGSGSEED

Compound	DC50 (BRM)	BRM IF Degradation Sinf (%) (BRM)	DC50 (BRG1)	Dmax (BRG1)
Nc1nnc(-c2ccccc2O)cc1N1CC2CCC(C1)N2c1ccnc(C#CCN2CC3CC2CO3)c1 (centres unmarked) [Compound 132, 2-[6-amino-5-[8-[2-[3-(2-oxa-5-azabicyclo[2.2.1]heptan-5-yl)prop-1-ynyl]-4-pyridyl]-3,8-diazabicyclo[3.2.1]octan-3-yl]pyridazin-3-yl]phenol]	< 10 nM	E (E indicates −30%-−70%)	< 10 nM	30 to 70%
CN1CC2(CCN(CC#Cc3cc(N4C5CCC4CN(c4cc(-c6ccccc6O)nnc4N)C5)ccn3)C2)C1 [Compound 156, 2-[6-amino-5-[8-[2-[3-(2-methyl-2,6-diazaspiro[3.4]octan-6-yl)prop-1-ynyl]-4-pyridyl]-3,8-diazabicyclo[3.2.1]octan-3-yl]pyridazin-3-yl]phenol]	> 100 nM	E (E indicates −30%-−70%)	> 100 nM	30 to 70%
CC1CN(CC#Cc2cc(N3C4CCC3CN(c3cc(-c5ccccc5O)nnc3N)C4)ccn2)CCCO1 (centres unmarked) [Compound 42, 2-[6-amino-5-[8-[2-[3-(2-methyl-1,4-oxazepan-4-yl)prop-1-ynyl]-4-pyridyl]-3,8-diazabicyclo[3.2.1]octan-3-yl]pyridazin-3-yl]phenol]	10 to 100 nM	E (E indicates −30%-−70%)	10 to 100 nM	30 to 70%
CC1CCN(CC#Cc2cc(N3C4CCC3CN(c3cc(-c5ccccc5O)nnc3N)C4)ccn2)CCC1O (centres unmarked) [Compound 190, 1-[3-[4-[3-[3-amino-6-(2-hydroxyphenyl)pyridazin-4-yl]-3,8-diazabicyclo[3.2.1]octan-8-yl]-2-pyridyl]prop-2-ynyl]-5-methyl-azepan-4-ol]	< 10 nM	F (F indicates −71%-−120%)	< 10 nM	30 to 70%
Nc1nnc(-c2ccccc2O)cc1N1CC2CCC(C1)N2c1ccnc(C#CCN2C[C@@H]3C[C@H]2[C@H]2C[C@@H]32)c1 [Compound 123, 2-[6-amino-5-[8-[2-[3-[(1R,2S,4S,5S)-6-azatricyclo[3.2.1.02,4]octan-6-yl]prop-1-ynyl]-4-pyridyl]-3,8-diazabicyclo[3.2.1]octan-3-yl]pyridazin-3-yl]phenol]	< 10 nM	E (E indicates −30%-−70%)	< 10 nM	30 to 70%
Nc1nnc(-c2ccccc2O)cc1N1CC2CCC(C1)N2c1ccnc(C#CCN2CCC[C@H]2CO)c1 [Compound 46, 2-[6-amino-5-[8-[2-[3-[(2S)-2-(hydroxymethyl)pyrrolidin-1-yl]prop-1-ynyl]-4-pyridyl]-3,8-diazabicyclo[3.2.1]octan-3-yl]pyridazin-3-yl]phenol]	< 10 nM	E (E indicates −30%-−70%)	10 to 100 nM	30 to 70%
Nc1nnc(-c2ccccc2O)cc1N1CC2CCC(C1)N2c1ccnc(C#CCN2CCCCC(F)C2)c1 (centres unmarked) [Compound 194, 2-[6-amino-5-[8-[2-[3-(3-fluoroazepan-1-yl)prop-1-ynyl]-4-pyridyl]-3,8-diazabicyclo[3.2.1]octan-3-yl]pyridazin-3-yl]phenol]	< 10 nM	F (F indicates −71%-−120%)	< 10 nM	30 to 70%
COC1C2CCC1N(CC#Cc1cc(N3C4CCC3CN(c3cc(-c5ccccc5O)nnc3N)C4)ccn1)C2 (centres unmarked) [Compound 82, 2-[6-amino-5-[8-[2-[3-(7-methoxy-2-azabicyclo[2.2.1]heptan-2-yl)prop-1-ynyl]-4-pyridyl]-3,8-diazabicyclo[3.2.1]octan-3-yl]pyridazin-3-yl]phenol]	< 10 nM	E (E indicates −30%-−70%)	< 10 nM	30 to 70%
